Test results published in patent publication EP0098138A2, “Microbial cells and the use thereof to produce oxidation products” (EXXON RESEARCH AND ENGINEERING COMPANY, priority 1982, dated 1984).
Where two headings read alike, the source gives them in different places.

Columns and labels:
[1] = test system: secondary alcohol dehydrogenase; assay: Oxidation of secondary alcohols by soluble extracts (NAD+ reduction at 340 nm); assay type: biochemical, Arthrobacter sp. (CRL 60 P1) NRRL B-11,315; details: substrate of soluble extracts, pH 8.0, 100% = 22 nmoles of NAD+ reduced per minute per mg of protein
Method: (§1) Cell suspensions of the microorganism strains identified in Table XII grown on the indicated growth substrate were disrupted with a wave energy ultrasonic oscillator Model W201 (Wave Energy System, Inc., Newton, Pa) and centrifuged at 30,000 x g for 30 min. The supernatant solution (cell extracts) was used for the oxidation of secondary alcohols. Secondary alcohol dehydrogenase activity was measured spectrophotometrically at 340 nm with oxidized nicotinamide adenine dinucleotide (NAD^+) as an electron acceptor.
(§2) The initial reaction mixture, in a total volume of 3.0 ml, consisted of 50mM phosphate buffer of pH 8.0, 5 µ moles of NAD^+, and cell extract.

alkane monooxygenase = assay: Epoxidation of alkenes and styrene by soluble extracts; assay type: biochemical, Brevibacterium sp. (CRL 56 P6Y) NRRL B-11,319
Method: The microorganism Brevibacterium sp. […] The fermentor was inoculated with 2 liters of a culture grown in flasks.
The cells thus grown were washed twice with 25 mM potassium phosphate buffer pH 7.0 and suspended in the same buffer solution containing 5mM MgCl2 and deoxyribonuclease (0.05 mg/ml). […] Disintegrated cell suspensions were centrifuged at 15,000 x g for 15 min. to remove unbroken cells. The supernatant solution was then centrifuged at 40,000 x g for 60 minutes and the supernatant solution therefrom was again centrifuged at 80,000 x g for 60 minutes, yielding the soluble fraction.
Several 3-ml vials at 4°C were charged with 0.2 ml of a reaction mixture consisting of 10 µmoles potassium phosphate buffer pH 7.0, 4 µ cmoles NADH2, and the soluble enzyme fraction obtained above. The gaseous phase of the vials was evacuated by vacuum and replaced with a gas mixture of gaseous oxidation substrate and oxygen (1:1 v/v); in the case of a liquid oxidation substrate, 2 µl of substrate was added. The vials were incubated at 35 °C on a reciprocating water bath shaker at 50 oscillations per minute.
The rate of epoxidation of alkenes and styrene was measured by injecting 1-2 µ1 samples of the reaction mixture into a gas chromatograph immediately after addition of substrate (zero time) and after 5 and 10 min. of incubation. Specific activities were expressed as […] of product formed per 10 min. per mg of protein. With each substrate, control experiments were conducted in the absence of NADH2, in the absence of oxygen, and using boiled extracts.

[2] = test system: Propane-Oxidizing Activity of Arthrobacter sp. (CRL 60 P1) NRRL B-11,315; assay: Effect of inhibitors on propane-oxidizing activity (acetone production) of propane-grown cell suspensions; assay type: cell-based; details: for inhibition at 1000 µM: Arthrobacter, NRRLB11, 0.25 h
Method: (§3) The pH of the nutrient medium was adjusted to 7.0 by the addition of acid or base and 50 ml samples of the nutrient medium were charged into a plurality of 300 ml shake flasks. The shake flasks were inoculated with an innoculating loop of cells from an agar plate containing homogeneous colonies of the microorganisms on the plate (the purity of the isolates was confirmed by microscopic examination). […] In the case of growth on liquid substrates (at 0.3%, v/v), the gaseous phase of the flasks was air. The inoculated flasks were sealed air tight and were incubated on a rotary shaker at 250 rpm and at 30°C for two days until turbidity in the medium had developed.
(§4) The cells were harvested by centrifugation at 12,000 x g. at 4 °C for 15 minutes. The cell pellet was washed twice with a 50 mM phosphate buffer at a pH of 7.0. The washed cells were then suspended in a 50mM phosphate buffer at pH 7.0.
(§5) The gaseous phase of the vials was removed with vacuum and then was replaced with a gas mixture of the oxidative substrate (e.g. ethane) and oxygen at a 1:1 v/v ratio. If a liquid substrate was employed, 5-10 µl of substrate was placed in the vials. […] Samples (3 µl) were withdrawn periodically with a microsyringe and the products were analyzed by gas chromatography (ionization flame detector column) at a column temperature of 100°C to 180 °C and at a carrier gas flow rate of 30 or 35 ml/ min of helium. The various products were identified by retention time comparisons and co-chromatography with authentic standards. […] Protein in the cell suspensions was determined by the method described by […].
(§6) All inhibitors were added at 1mM concentration and the cell suspensions were incubated for 15 min. at 4 °C.

[3] = test system: secondary alcohol dehydrogenase; assay: Effect of inhibitors on oxidation of 2-butanol by cell extracts (NAD+ reduction at 340 nm); assay type: biochemical, Arthrobacter sp. (CRL 60 P1) NRRL B-11,315
Method: as §1, §2
All inhibitors were tested at lmM concentration and incubated with the soluble extracts in the reaction mixture for 15 min at 0°C. Otherwise the procedure described above was followed.

[4] = test system: Propylene-Oxidizing Activity of Arthrobacter sp. (CRL 60 P1) NRRL B-11,315; assay: Effect of inhibitors on propylene-oxidizing activity (propylene oxide formation) of propane-grown cell suspensions; assay type: cell-based; details: for inhibition at 1000 µM: Arthrobacter, NRRLB11, 0.25 h
Method: as §3, §4, §5, §6

[5] = test system: Cell-Free Particulate Fraction of Arthrobacter sp. (CRL 60 P1) NRRL B-11,315; assay: Oxidation of alkenes and alkanes by cell-free particulate P(40) fraction; assay type: biochemical
Method: (§9) Cells were harvested during exponential growth by centrifugation at 12,000 x g for 15 min. at 4°C. Cells were washed twice with a 25 mM potassium phosphate buffer of pH 7.0 containing 5mM MgCl2 and were then suspended in the same buffer. The resulting cell suspensions at 4°C were disintegrated by a single passage through a French pressure cell (45 mPa) and centrifuged at 5,000 x g for 15 min to remove unbroken bacteria. […] The particulate fraction [P(40)] was suspended in the same buffer as described above and homogenized at 4°C.
(§10) A 1.0 ml sample containing the particulate or soluble fraction, 10 µ moles NADH and 150 mM potassium phosphate buffer at pH 7.0 containing 3 µ moles MgCl2 was put into separate 10 ml vials at 4°C which were sealed with a rubber cap. The gaseous phase of the vials was removed by vacuum and replaced with a gas mixture of the indicated alkane or alkene as substrate and oxygen at a 1:1 v/v ratio. The vials were then incubated at 30°C on a rotary shaker at 200 rpm for 10 minutes.
Reactions were linear during the first 15 minutes of incubation as measured by detection of product by gas chromatography.

[6] = test system: Cell-Free Particulate P(40) Fraction of Arthrobacter sp. (CRL 60 P1) NRRL B-11,315
Method: as §9, §10

[7] = test system: Arthrobacter sp. (CRL 60 Pl) NRRL B-11,315; assay: Effect of propane on oxidation of propylene to propylene oxide by cell suspensions; assay type: cell-based; details: propane added to cell suspensions epoxidising propylene
Text: (§7) The following summarizes tests conducted on the optimal conditions for the production of propylene oxide from propylene using cell suspensions of propane-grown Arthrobacter sp. (CRL 60 Pl) NRRL B-11,315 as the representative microorganism strain. It will be understood that these are optimal conditions found for one particular strain and one particular substrate, and the invention is not meant to be bound by them. Conversions of propylene can still be obtained using Arthrobacter sp. (CRL 60 Pl) NRRL B-11,315 by deviating from the optimum indicated below, but with lower yields and conversions.
The effect of propane on the oxidation of propylene to propylene oxide was studied to determine if a single enzyme system was responsible for the oxidation of both propane and propylene.

[8] = test system: Arthrobacter sp. (CRL 60 Pl) NRRL B-11,335
Method: as §5
Arthrobacter sp. […] Ethanol was converted to acetaldehyde (acetyl Co ~A in vivo) by primary alcohol dehydrogenase, yielding 1 mole of NADH, with subsequent oxidation of the intermediate acetyl Co ~A to carbon dioxide, yielding 3 additional moles of NADH.

[9] = test system: Arthrobacter sp. (CRL 60 Pl) NRRL B-11,315; assay: Further oxidation of added propylene oxide by viable cell suspensions; assay type: cell-based; details: 5 µ moles added to viable cell suspension, 30°C
Text: as §7
(§8) To determine if the slower reaction rate after 40-60 min of incubation was due to enzymatic or non-enzymatic oxidation of propylene oxide or due to product inhibition, 5 µ moles of propylene oxide was added to viable and to heat-killed cell suspensions in the presence and absence of propylene, and incubated at 30°C.

[10] = assay type: physicochemical
Method: as §8
[…]. The rate of epoxidation of propylene was found not to vary markedly in the pH range from 5 to 9, with the optimum pH about 7. A 5 A mole sample of propylene oxide was added to heat-killed cell suspensions at pH 5, 7 and 9 to test for non-enzymatic degradation of propylene oxide at these pH values.

[11] = test system: Cell-Free Particulate P(40) Fraction of Arthrobacter sp. (CRL 60 P1) NRRL B-11,315; assay: Effect of inhibitors on oxidation of propane and butane by cell-free particulate P(40) fraction
Method: as §9, §10

[12] = substrate epoxidised by soluble fraction, NADH2 and oxygen, pH 7.0, 35°C
[13] = inhibitor 1mM, cell suspensions incubated 15 min at 4°C, acetone production by gas chromatography, uninhibited rate 1.5 μ moles/hr/mg of protein
[14] = inhibitor 1mM, incubated with soluble extracts 15 min at 0°C, substrate 2-butanol, uninhibited activity 25 nmoles of NAD+ reduced per min per mg of protein
[15] = inhibitor 1mM, cell suspensions incubated 15 min at 4°C, propylene oxide formation by gas chromatography, uninhibited rate 0.6 μmoles/15 min/mg of protein
[16] = alkene substrate, epoxide product, P(40) fraction, NADH and oxygen, pH 7.0, 30°C

2-Butanol
Rate of Oxidation (%) [1]: 100%

C=CC=C [1,3-Butadiene]
Rate of Product Formation (alkane monooxygenase; [12]): 0.044 μ mole/10 min./mg protein

c1cnc2c(c1)ccc1cccnc12 [1,10-Phenanthroline]
inhibition at 1000 µM [2, 13]: 80%
Inhibition (%) [3, 14]: 80%
inhibition at 1000 µM [4, 15]: 90%

C=CCC [1-Butene]
Rate of Product Formation (alkane monooxygenase; pH 7): 0.030 μ mole/10 min./mg protein
Rate of Product Formation ([5]; pH 7): 0.216 μ moles/hr/mg protein

C=CCCCCC [1-Heptene]
Rate of Product Formation (alkane monooxygenase; pH 7): 0.008 μ mole/10 min./mg protein

C=CCCC [1-Pentene]
Rate of Product Formation (alkane monooxygenase; [12]): 0.025 μ mole/10 min./mg protein
Rate of Product Formation [5, 16]: 0.195 μ moles/hr/mg protein

CCCCCC(C)O (stereo not shown) [2-Heptanol]
Rate of Oxidation (%) [1]: 4%

CCCCC(C)O (stereo not shown) [2-Hexanol]
Rate of Oxidation (%) [1]: 10%

CCCC(C)O (stereo not shown) [2-Pentanol]
Rate of Oxidation (%) [1]: 12%

C=C [Ethylene]
Rate of Product Formation (alkane monooxygenase; pH 7): 0.040 μ mole/10 min./mg protein
Rate of Product Formation ([5]; pH 7): 0.153 μ moles/hr/mg protein

NO [Hydroxylamine]
Inhibition (%) Propane-Oxidizing Activity [2, 13]: 70%
Inhibition (%) Propylene-Oxidizing Activity [4, 15]: 83%

c1c[nH]cn1 [Imidazole]
inhibition [6]: 80%
inhibition at 1000 µM [2, 13]: 80%

C=C(C)C [Isobutene]
Rate of Product Formation (alkane monooxygenase; [12]): 0.046 μ mole/10 min./mg protein

NNC(=O)c1ccncc1 [Isoniazide]
inhibition at 1000 µM [2, 13]: 30%
inhibition at 1000 µM [4, 15]: 35%

CC(C)O [Isopropanol]
Rate of Oxidation (%) [1]: 65%

CCN1C(=O)C=CC1=O [N-Ethylmaleimide]
inhibition at 1000 µM [2, 13]: 70%
Inhibition (%) [3, 14]: 30%
inhibition at 1000 µM [4, 15]: 81%

CCC [Propane]
effect of propane on the oxidation of propylene to propylene oxide [7]: reducing the amount of propylene oxide formed
Rate of Product Formation ([5]; alkane substrate, primary alcohol product (n-propanol, n-butanol), P(40) fraction, NADH and oxygen, pH 7.0, 30°C): 0.600 μ moles/hr/mg protein
Rate of Product Formation ([5]; alkane substrate, secondary alcohol product (2-propanol, 2-butanol), P(40) fraction, NADH and oxygen, pH 7.0, 30°C): 0.300 μ moles/hr/mg protein

C=CC [Propylene]
Rate of Product Formation (alkane monooxygenase; [12]): 0.052 μ mole/10 min./mg protein
Rate of Product Formation [5, 16]: 0.360 μ moles/hr/mg protein

C=Cc1ccccc1 [Styrene]
Rate of Product Formation (alkane monooxygenase; [12]): 0.005 μ mole/10 min./mg protein

CC(=N)S [Thioacetamide]
inhibition at 1000 µM [2, 13]: 60%
inhibition at 1000 µM [4, 15]: 68%

NNC(N)=S [Thiosemicarbazide]
inhibition at 1000 µM [2, 13]: 10%
inhibition at 1000 µM [4, 15]: 12%

NC(N)=S [Thiourea]
inhibition at 1000 µM [2, 13]: 10%
inhibition at 1000 µM [4, 15]: 12%

C/C=C\C [cis-But-2-ene]
Rate of Product Formation (alkane monooxygenase; pH 7): 0.018 μ mole/10 min./mg protein

CCO [ethanol]
Epoxidation Rate (rate of propylene oxide formation) ([8]; 5 μmole ethanol, 1 hr., control 2.5): 2.9 μ mole/0.5 ml.
Epoxidation Rate (rate of propylene oxide formation) ([8]; 5 μmole ethanol, 2 hr., control 3.8): 5.6 μ mole/0.5 ml.
Epoxidation Rate (rate of propylene oxide formation) ([8]; 5 μmole ethanol, 3 hr., control 3.9): 6.5 μ mole/0.5 ml.
Epoxidation Rate (rate of propylene oxide formation) ([8]; 25 μmole ethanol, 1 hr., control 2.5): 2.4 μ mole/0.5 ml.
Epoxidation Rate (rate of propylene oxide formation) ([8]; 25 μmole ethanol, 2 hr., control 3.8): 5.2 μ mole/0.5 ml.
Epoxidation Rate (rate of propylene oxide formation) ([8]; 25 μmole ethanol, 3 hr., control 3.9): 6.5 μ mole/0.5 ml.

O=C(O)c1cc[c]([Hg+])cc1.[OH-] [p-Hydroxymercuribenzoate]
Inhibition (%) Propane-Oxidizing Activity [2, 13]: 35%
Inhibition (%) [3]: 95%
Inhibition (%) Propylene-Oxidizing Activity [4, 15]: 35%

CC1CO1 (stereo not shown) [propylene oxide]
disappearance in propylene oxide [9]: Some disappearance
amount of propylene oxide ([10]; 5 µ moles added to heat-killed cell suspensions, 30°C): remained constant
non-enzymatic degradation of propylene oxide ([10]; heat-killed cell suspensions at pH 5, 7 and 9, one hour of incubation): did not decrease

C/C=C/C [trans-But-2-ene]
Rate of Product Formation (alkane monooxygenase; pH 7): 0.022 μ mole/10 min./mg protein

α,α-Bipyridyl
Inhibition (%) Propane-Oxidizing Activity [2]: 30%
Inhibition (%) [11]: 32%
Inhibition (%) Propylene-Oxidizing Activity [4]: 32%
